In patent US11014934B2, “Antiseptic drug” (AO “TATKHIMFARMPREPARATY”, priority 2017, dated 2021):

Experiments:
E. coli CDC F-50 = test: Antiseptic activity on rat skin; format: in vivo; conditions: E. coli CDC F-50 on rat skin; antiseptic concentration 0.2%; exposure time 5 min; n = 6
Experimental: The study of the antiseptic activity of compound I in rats […] was carried out in accordance with [R 4.2.2643-10 Metody laboratornykh issledovaniy i ispytaniy mediko-profilakticheskikh dezinfektsionnykh sredstv dlya otsenki ikh effektivnosti i bezopasnosti: Rukovodstvo.—M: Federal'nyy tsentr gigiyeny i epidemiologii Rospotrebnadzora, 2010.—S. 615. R 4.2.2643-10 Laboratory methods for the study and testing of medical prophylactic disinfectants to assess their effectiveness and safety: Guide.—M.:: Federal Center for Hygiene and Epidemiology of Rospotrebnadzor, 2010.—P. 615]. Experiments were carried out on male Wistar rats with a body weight of 180-250 g.
A culture of E. coli CDC F-50, grown on dense nutrient medium for (18-20) hours, was washed with sterile isotonic chloride solution, centrifuged at 5000 rpm for 5 minutes, the supernatant was drained and cells were resuspended with sterile isotonic sodium chloride solution.
The bacterial suspension of microorganisms was brought to a turbidity of […] according to McFarland, which corresponds to a concentration of 1.5×10^7 cells/ml.
Animals were formed in 5 groups of 6 animals each. All manipulations with animals were performed under isoflurane anesthesia (4%—induction of anesthesia (2 min, 1 l/min), 2%—basis narcosis). A portion of 5×5 cm was shaved with a hair clipper on the dorsal part of the body of the animal.
A 0.25 ml microbial suspension containing 1×10^7 CFU of E. coli CDC F-50 was applied to the shaved portion of the rat back with a dispenser and distributed with a sterile disposable spatula over the entire square area. It was left for 2-3 minutes until dry.
Then, a gauze cloth (5×5 cm) was applied to the skin of rats for 5 minutes. In the experimental group, the tissue was pre-wetted with 1 ml of 0.2% solution of compound I, and in the positive control groups, the tissue was dipped in 1 ml of 0.2% miramistin, benzalkonium chloride and chlorhexidine. In the negative control group, the cloth was immersed in 1 ml of sterile saline. […]
After the time required for the cultivation of microorganisms of this species, the results were counted according to the number of colonies grown on the Petri dish. […] After counting the number of colonies grown on Petri dishes, the density of contamination per 1 cm^2 of the surface and the percentage of disinfection were calculated, taking the number of colonies removed from control surfaces and not exposed to antiseptics action as 100%. The percentage of growth inhibition of E. coli CDC F-50 was calculated by the formula: […]

[1] = test system: Staphylococcus aureus ATCC 209p; test: Disinfectant activity in contaminated metal surface test; format: cell-based; conditions: for Inhibition rate (Mean ± SD) of Staphylococcus aureus ATCC 209p growth: 0.1% solution; for Inhibition rate (M ± SD) Staphylococcus aureus ATCC 209p: 0.2% solution; for time after application to effective inhibition of bacterial growth (99.99%): 0.1% solutions
Experimental: (§1) The preparation of the bacterial suspension was carried out similarly to the procedure for determining the disinfecting activity of compound I in suspension (see example 7). To simulate protein contamination of the metal surface, a BSA solution was added to the bacterial suspension to a final concentration of 0.4%. The surface of the metal table was drawn into squares, the number of which depended on the number of strains studied. The test surface should be clean, intact, sterile. To do this, the table was cleaned with alcohol, and then with sterile water. A microbial suspension in a volume of 0.125 ml was applied to a surface area of 5×5 cm and distributed with a sterile spatula over the entire square area. After the microbial suspension was dried, a 0.5 ml solution of compound I (miramistin and benzalkonium chloride being a control) was uniformly applied to the surface at a working concentration of 0.1 and 0.2% and distributed over the square surface with a sterile spatula, and then kept for 1, 5, and 15 minutes.
(§2) After the end of exposure, the contaminated surface was thoroughly wiped with a sterile gauze cloth (size 5×5 cm) soaked in 1 ml of a neutralizer solution and the cloth was immersed in 10 ml of sterile physiological saline in a flask, which was shaken for 10 minutes.
(§3) Plating was carried out as in example 7, in addition to the controls were carried out: • control of the sterility of the surface (before applying the microbial suspension, a metal table was washed off with a sterile swab, followed by plating on a nutrient medium); • control of the vitality of the microorganism (after applying microbial suspension on the metal table, it was washed off with a sterile swab with subsequent plating on the nutrient medium).
(§4) The contamination density of 1 cm^2 of the surface and the percentage of disinfection were calculated, taking the number of colonies removed from control surfaces as 100%. The criterion for the effectiveness of surface disinfection is not less than 99.99% of the death of test microorganisms, the disinfection time is not more than 120 minutes.

[2] = test system: Escherichia coli CDC F-50; test: as above; format: cell-based; conditions: for time after application to effective inhibition of bacterial growth: Escherichia coli CDC F-50, 0.1% solutions
Experimental: as §1, §2, §3, §4

[3] = Staphylococcus aureus ATCC 209p
[4] = 0.1% solution, exposure 1 min, +BSA
[5] = 0.1% solution, exposure 1 min, −BSA
[6] = 0.1% solution, exposure 5 min, +BSA
[7] = 0.1% solution, exposure 5 min, −BSA
[8] = 0.1% solution, exposure 15 min, +BSA
[9] = 0.1% solution, exposure 15 min, −BSA
[10] = 0.2% solution, exposure 1 min, +BSA
[11] = 0.2% solution, exposure 1 min, −BSA
[12] = 0.2% solution, exposure 5 min, +BSA
[13] = 0.2% solution, exposure 5 min, −BSA
[14] = 0.2% solution, exposure 15 min, +BSA
[15] = 0.2% solution, exposure 15 min, −BSA

Molecule | Growth inhibition rate (M ± SD) (E. coli CDC F-50) | Inhibition rate (Mean ± SD) of Staphylococcus aureus ATCC 209p growth ([1]; exposure 1 min, +BSA) | Inhibition rate (Mean ± SD) of Staphylococcus aureus ATCC 209p growth ([1]; exposure 1 min, −BSA) | Inhibition rate (Mean ± SD) of Staphylococcus aureus ATCC 209p growth ([1]; exposure 5 min, +BSA) | Inhibition rate (Mean ± SD) of Staphylococcus aureus ATCC 209p growth ([1]; exposure 5 min, −BSA) | Inhibition rate (Mean ± SD) of Staphylococcus aureus ATCC 209p growth ([1]; exposure 15 min, +BSA) | Inhibition rate (Mean ± SD) of Staphylococcus aureus ATCC 209p growth ([1]; exposure 15 min, −BSA) | Inhibition rate (M ± SD) Staphylococcus aureus ATCC 209p ([1]; exposure 1 min, +BSA) | Inhibition rate (M ± SD) Staphylococcus aureus ATCC 209p ([1]; exposure 1 min, −BSA) | Inhibition rate (M ± SD) Staphylococcus aureus ATCC 209p ([1]; exposure 5 min, +BSA) | Inhibition rate (M ± SD) Staphylococcus aureus ATCC 209p ([1]; exposure 5 min, −BSA) | Inhibition rate (M ± SD) Staphylococcus aureus ATCC 209p ([1]; exposure 15 min, +BSA) | Inhibition rate (M ± SD) Staphylococcus aureus ATCC 209p ([1]; exposure 15 min, −BSA) | time after application to effective inhibition of bacterial growth (99.99%) [1, 3] | Inhibition rate (M ± SD) of Escherichia coli CDC F-50 growth [2, 4] | Inhibition rate (M ± SD) of Escherichia coli CDC F-50 growth [2, 5] | Inhibition rate (M ± SD) of Escherichia coli CDC F-50 growth [2, 6] | Inhibition rate (M ± SD) of Escherichia coli CDC F-50 growth [2, 7] | Inhibition rate (M ± SD) of Escherichia coli CDC F-50 growth [2, 8] | Inhibition rate (M ± SD) of Escherichia coli CDC F-50 growth [2, 9] | also measured
CCCCCCCCCCCC[N+](C)(C)Cc1cnc(C[N+](C)(C)CCCCCCCCCCCC)c2c1COC(CC)O2 (centres unmarked) [Compound I, 5,8-(Bis(methylene (N, N-dimethyl-N-dodecylammonium))-2-ethyl-4H-[1,3]dioxino [4,5-c]pyridiniumdichloride] | 97.5 ± 1.7% | 99.98 ± 0.00% | 99.99% | 99.99% | 99.99% | 99.99% | 99.99% | 99.99% | 99.99% | 99.99% | 99.99% | 99.99% | 99.99% | 5 min | 99.92 ± 0.005% | 99.92 ± 0.005% | 99.96 ± 0.005% | 99.97 ± 0.005% | 99.99 ± 0.005% | 99.99 ± 0.00% | time to effective inhibition of bacterial growth ([1]; Staphylococcus aureus ATCC 209p, concentration 0.2%): 1 min; Inhibition rate (M ± SD) of Escherichia coli CDC F-50 growth [2, 10]: 99.94 ± 0.00%; Inhibition rate (M ± SD) of Escherichia coli CDC F-50 growth [2, 11]: 99.98 ± 0.005%; Inhibition rate (M ± SD) of Escherichia coli CDC F-50 growth [2, 12]: 99.99 ± 0.005%; Inhibition rate (M ± SD) of Escherichia coli CDC F-50 growth [2, 13]: 99.99 ± 0.005%; Inhibition rate (M ± SD) of Escherichia coli CDC F-50 growth [2, 14]: 100 ± 0.005%; Inhibition rate (M ± SD) of Escherichia coli CDC F-50 growth [2, 15]: 100%; time after application to effective inhibition of bacterial growth [2]: 15 min
CCCCCCCCCCCCCC(=O)NCCC[N+](C)(C)Cc1ccccc1.O.[Cl-] [Miramistin, benzyldimethyl [3-(myristoylamino)propyl]-ammonium chloride monohydrate] | 97.2 ± 1.8% | 99.98 ± 0.00% | 99.98 ± 0.005% | 99.99% | 99.99% | 99.99% | 99.99% | 99.98 ± 0.00% | 99.98 ± 0.005% | 99.99% | 99.99% | 99.99% | 99.99% | 5 min | 99.75 ± 0.005% | 99.75 ± 0.00% | 99.97 ± 0.005% | 99.86 ± 0.005% | 99.99 ± 0.005% | 99.99 ± 0.005% | Inhibition rate (M ± SD) of Escherichia coli CDC F-50 growth [2, 10]: 99.83 ± 0.005%; Inhibition rate (M ± SD) of Escherichia coli CDC F-50 growth [2, 11]: 99.98 ± 0.005%; Inhibition rate (M ± SD) of Escherichia coli CDC F-50 growth [2, 12]: 99.99 ± 0.005%; Inhibition rate (M ± SD) of Escherichia coli CDC F-50 growth [2, 13]: 99.99 ± 0.005%; Inhibition rate (M ± SD) of Escherichia coli CDC F-50 growth [2, 14]: 99.99 ± 0.005%; Inhibition rate (M ± SD) of Escherichia coli CDC F-50 growth [2, 15]: 100%; time after application to effective inhibition of bacterial growth [2]: 15 min
alkyldimethyl(phenylmethyl) ammonium chloride [Benzalconium chloride] | 96.8 ± 2.0% | 99.99 ± 0.005% | 99.99% | 99.99% | 99.99% | 99.99% | 99.99 ± 0.005% | 99.99% | 99.99% | 99.99% | 99.99% | 99.99 ± 0.005% | 100% | 5 min | 99.97 ± 0.005% | 99.96 ± 0.005% | 99.97 ± 0.005% | 99.98 ± 0.005% | 99.99 ± 0.005% | 100 ± 0.00% | Inhibition rate (M ± SD) of Escherichia coli CDC F-50 growth [2, 10]: 99.97 ± 0.00%; Inhibition rate (M ± SD) of Escherichia coli CDC F-50 growth [2, 11]: 99.99 ± 0.005%; Inhibition rate (M ± SD) of Escherichia coli CDC F-50 growth [2, 12]: 99.99 ± 0.005%; Inhibition rate (M ± SD) of Escherichia coli CDC F-50 growth [2, 13]: 100%; Inhibition rate (M ± SD) of Escherichia coli CDC F-50 growth [2, 14]: 100 ± 0.00%; Inhibition rate (M ± SD) of Escherichia coli CDC F-50 growth [2, 15]: 100%; time after application to effective inhibition of bacterial growth [2]: 15 min; time to effective inhibition of bacterial growth ([2]; Escherichia coli CDC F-50, concentration 0.2%, test without protein load): 1 min
